Molecules are shown by their SMILES. Where only a bound is given, the exact number is not on record here.

What is called inhibition is the share of the control response that was lost under treatment.

Common to all, as to test: Kinase profiling
What all share (assay type): biochemical

One assay addresses T1, EPHB1 (Homo sapiens, UniProt P54762).
T1 construct: purchased ProQinase (Freiburg, Germany)
T1 sequence (P54762 18-984): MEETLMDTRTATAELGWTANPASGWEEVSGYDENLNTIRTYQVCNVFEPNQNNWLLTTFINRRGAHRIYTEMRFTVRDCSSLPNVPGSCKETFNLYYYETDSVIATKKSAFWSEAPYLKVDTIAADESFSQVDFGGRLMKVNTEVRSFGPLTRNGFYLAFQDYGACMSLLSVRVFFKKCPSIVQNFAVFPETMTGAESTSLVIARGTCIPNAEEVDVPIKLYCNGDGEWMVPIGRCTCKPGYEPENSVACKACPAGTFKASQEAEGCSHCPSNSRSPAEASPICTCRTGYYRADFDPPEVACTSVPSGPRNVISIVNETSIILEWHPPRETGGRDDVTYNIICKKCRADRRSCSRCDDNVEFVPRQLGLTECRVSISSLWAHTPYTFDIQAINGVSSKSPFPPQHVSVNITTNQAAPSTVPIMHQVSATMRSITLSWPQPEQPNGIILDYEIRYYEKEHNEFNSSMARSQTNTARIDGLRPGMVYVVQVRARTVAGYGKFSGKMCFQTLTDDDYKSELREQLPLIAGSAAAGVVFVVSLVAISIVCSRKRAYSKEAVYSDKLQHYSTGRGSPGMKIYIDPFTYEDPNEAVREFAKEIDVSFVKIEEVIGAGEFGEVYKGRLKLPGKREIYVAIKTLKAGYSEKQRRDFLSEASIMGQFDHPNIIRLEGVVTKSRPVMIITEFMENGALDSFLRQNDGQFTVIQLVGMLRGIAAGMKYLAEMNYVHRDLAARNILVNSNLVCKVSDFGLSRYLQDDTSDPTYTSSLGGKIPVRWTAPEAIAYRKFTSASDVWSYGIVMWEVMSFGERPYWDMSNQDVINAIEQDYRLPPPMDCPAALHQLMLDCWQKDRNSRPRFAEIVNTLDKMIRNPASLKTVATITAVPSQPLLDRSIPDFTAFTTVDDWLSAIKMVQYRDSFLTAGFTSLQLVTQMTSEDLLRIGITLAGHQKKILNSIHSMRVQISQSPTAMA
As for the experimental part: (§1) The analysis was performed by ProQinase (Freiburg, Germany).

Another assay has as its target T2, STK39 (Homo sapiens, UniProt Q9UEW8).
T2 construct: purchased ProQinase (Freiburg, Germany)
As for the experimental part: as §1

Another assay has as its target T3, BRAF (Homo sapiens, UniProt P15056).
T3 construct: purchased ProQinase (Freiburg, Germany)
The protocol: as §1

Another assay has as its target T4, MKK7 (Homo sapiens, UniProt O14733).
T4 construct: purchased ProQinase (Freiburg, Germany)
T4 sequence (O14733 1-419): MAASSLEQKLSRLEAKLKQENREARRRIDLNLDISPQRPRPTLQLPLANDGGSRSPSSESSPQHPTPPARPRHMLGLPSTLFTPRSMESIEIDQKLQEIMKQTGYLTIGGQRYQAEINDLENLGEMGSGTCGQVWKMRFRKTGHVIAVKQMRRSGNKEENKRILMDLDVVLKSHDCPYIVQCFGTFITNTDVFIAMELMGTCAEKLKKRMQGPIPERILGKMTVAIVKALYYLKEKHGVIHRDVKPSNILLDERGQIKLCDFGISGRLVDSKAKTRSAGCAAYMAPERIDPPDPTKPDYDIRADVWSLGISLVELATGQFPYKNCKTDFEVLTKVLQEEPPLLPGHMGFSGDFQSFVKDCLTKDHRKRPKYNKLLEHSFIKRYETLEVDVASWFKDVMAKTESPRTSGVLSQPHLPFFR
As for the experimental part: as §1

A further assay concerns the target T5, MEKK2 (Homo sapiens, UniProt Q9Y2U5).
T5 construct: purchased ProQinase (Freiburg, Germany)
T5 sequence (Q9Y2U5 1-619): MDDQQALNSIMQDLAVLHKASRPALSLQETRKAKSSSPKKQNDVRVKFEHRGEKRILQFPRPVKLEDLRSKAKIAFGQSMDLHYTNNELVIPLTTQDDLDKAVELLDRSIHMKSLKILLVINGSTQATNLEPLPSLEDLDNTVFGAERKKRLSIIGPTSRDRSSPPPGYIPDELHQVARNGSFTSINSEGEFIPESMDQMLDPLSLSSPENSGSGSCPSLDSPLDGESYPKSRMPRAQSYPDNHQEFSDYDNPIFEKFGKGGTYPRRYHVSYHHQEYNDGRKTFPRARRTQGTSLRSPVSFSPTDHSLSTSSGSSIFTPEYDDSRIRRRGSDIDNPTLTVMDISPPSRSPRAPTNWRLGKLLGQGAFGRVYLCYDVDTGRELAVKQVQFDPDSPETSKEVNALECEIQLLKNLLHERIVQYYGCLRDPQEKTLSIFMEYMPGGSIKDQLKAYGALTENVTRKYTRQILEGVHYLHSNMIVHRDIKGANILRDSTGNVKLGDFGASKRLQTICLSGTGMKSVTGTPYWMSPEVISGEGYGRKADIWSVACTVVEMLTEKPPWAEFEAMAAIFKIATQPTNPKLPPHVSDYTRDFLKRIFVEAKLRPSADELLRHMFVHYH
The protocol:
as §1

The target in the next assay is T6, ITK (Homo sapiens, UniProt Q08881).
T6 construct: purchased ProQinase (Freiburg, Germany)
T6 sequence (Q08881 1-620): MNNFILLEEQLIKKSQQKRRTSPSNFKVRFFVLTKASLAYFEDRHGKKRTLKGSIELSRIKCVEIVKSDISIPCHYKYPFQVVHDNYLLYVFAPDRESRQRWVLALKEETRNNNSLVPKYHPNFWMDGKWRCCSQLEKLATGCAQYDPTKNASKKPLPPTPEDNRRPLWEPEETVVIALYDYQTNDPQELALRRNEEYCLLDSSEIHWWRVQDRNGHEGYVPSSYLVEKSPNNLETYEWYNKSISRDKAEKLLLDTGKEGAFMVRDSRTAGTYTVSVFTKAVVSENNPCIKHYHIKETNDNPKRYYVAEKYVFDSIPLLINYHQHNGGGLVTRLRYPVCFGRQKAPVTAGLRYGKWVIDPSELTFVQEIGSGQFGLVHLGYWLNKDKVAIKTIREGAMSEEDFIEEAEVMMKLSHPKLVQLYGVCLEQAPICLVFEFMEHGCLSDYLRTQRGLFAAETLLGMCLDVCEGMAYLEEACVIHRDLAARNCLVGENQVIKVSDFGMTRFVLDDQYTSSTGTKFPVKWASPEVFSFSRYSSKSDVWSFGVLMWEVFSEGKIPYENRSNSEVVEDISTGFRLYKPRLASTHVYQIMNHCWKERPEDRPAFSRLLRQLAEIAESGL
The protocol:
as §1

T3 sequence (P15056 whole entry): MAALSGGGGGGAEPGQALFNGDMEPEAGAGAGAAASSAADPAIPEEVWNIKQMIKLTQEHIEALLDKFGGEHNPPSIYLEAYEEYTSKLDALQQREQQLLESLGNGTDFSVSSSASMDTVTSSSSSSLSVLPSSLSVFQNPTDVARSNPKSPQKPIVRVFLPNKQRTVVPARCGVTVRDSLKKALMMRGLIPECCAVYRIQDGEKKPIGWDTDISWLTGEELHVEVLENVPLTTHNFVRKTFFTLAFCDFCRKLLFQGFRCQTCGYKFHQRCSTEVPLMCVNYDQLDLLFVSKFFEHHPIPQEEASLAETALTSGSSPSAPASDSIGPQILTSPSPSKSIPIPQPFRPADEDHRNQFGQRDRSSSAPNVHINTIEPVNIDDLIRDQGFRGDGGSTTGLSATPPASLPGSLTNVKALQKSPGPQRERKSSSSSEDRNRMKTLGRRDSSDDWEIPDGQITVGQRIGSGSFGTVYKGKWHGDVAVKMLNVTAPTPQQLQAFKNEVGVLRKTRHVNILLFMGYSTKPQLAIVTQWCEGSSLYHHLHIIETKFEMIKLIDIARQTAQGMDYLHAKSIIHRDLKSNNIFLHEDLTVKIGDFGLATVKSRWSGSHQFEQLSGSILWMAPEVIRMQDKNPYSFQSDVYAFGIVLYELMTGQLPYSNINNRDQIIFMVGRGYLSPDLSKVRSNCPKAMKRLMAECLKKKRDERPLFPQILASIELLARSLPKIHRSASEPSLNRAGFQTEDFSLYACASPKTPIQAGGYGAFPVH

In the case of `O=C(Cc1ccccc1)Nc1ccc(F)c(Nc2ccc3c(c2)CCCCC3=O)c1` [Compound 100], the Residual activity on EPHB1 (1.0E-05 M) is 103 % of control; on EPHB1 (1.0E-06 M), 113 % of control; on STK39 (1.0E-05 M), 106 % of control; at STK39 (1.0E-06 M), 108 % of control; at BRAF (1.0E-05 M) it was 25 % of control; at BRAF (1.0E-06 M), 58 % of control. Further, the Residual activity at MKK7 (1.0E-05 M) was 110 % of control; on MKK7 (1.0E-06 M), 101 % of control; on MEKK2 (1.0E-05 M), 108 % of control; on MEKK2 (1.0E-06 M), 108 % of control; on ITK (1.0E-05 M), 75 % of control; at ITK (1.0E-06 M), 94 % of control. Also, the inhibition at 10 µM against BRAF was at least 50%.
In the case of `O=C(Nc1ccc(F)c(Nc2ccc3c(c2)CCCCC3=O)c1)c1cccc(F)c1` [Compound 109], the Residual activity at EPHB1 (1.0E-05 M) is on record as 95 % of control; at EPHB1 (1.0E-06 M), 113 % of control; on STK39 (1.0E-05 M), 100 % of control; on STK39 (1.0E-06 M), 90 % of control; at BRAF (1.0E-05 M), 39 % of control; on BRAF (1.0E-06 M), 67 % of control. In addition, the Residual activity on MKK7 (1.0E-05 M) is on record as 90 % of control; on MKK7 (1.0E-06 M), 84 % of control; on MEKK2 (1.0E-05 M), 101 % of control; on MEKK2 (1.0E-06 M), 99 % of control; at ITK (1.0E-05 M), 82 % of control; at ITK (1.0E-06 M), 93 % of control. This compound had an inhibition at 10 µM at BRAF of at least 50%.

Values taken from PMC9030254, “Target Hopping from Protein Kinases to PXR: Identification of Small-Molecule Protein Kinase Inhibitors as Selective Modulators of Pregnane X Receptor from TüKIC Library” (Cells, 2022).
